# PMC3805977 (Scientific Reports, 2013)
# Test system: HIV-1
# Experiment: HIV-1 inhibition assay, isolates not separated
# Format: cell-based
# Conditions: across HIV-1 clades; effect augmented with streptavidin conjugation
sequence,measurement,value
SSCSVRSSCRLYYSC,"HIV-1 inhibitory activity, in words",did not show any HIV-1 inhibition
